From patent publication US12686788B2, “Coating compositions having covalently bound ultraviolet absorbers” (BASF SE, priority 2017, dated 2026)

Legend:
Type in all cases: physicochemical
[1] = UV absorber solubility in UV curable coating composition (Example 9); details: approximate maximum concentration with no sign of crystallization; coating similar to Pourreau, RadTech Report 2004, Table 6
Procedure: Example 9. UV Absorber Solubility in UV Curable Coating Compositions. To measure this solubility, a number of structurally different UV absorbers were added to a typical UV curable coating composition similar to that as described by D. B. Pourreau “UV-Curable Acrylic Urethane Clearcoats for Automotive Applications,” RadTech Report, November/December, 2004, Table 6, p. 68. The test UV absorber was added to the UV curable coating composition at various concentrations. The resulting solution was placed into individual containers and sealed. Solubility was then evaluated based upon observed crystallization in the solvent. Observations were initiated after several hours and continued over a period of several weeks.
The solubility values given in Table 2, below, are approximate maximum concentrations where no sign of subsequent crystallization is evident. Solubilities are reported in weight percent of total UV absorber added to UV curable coating formulation. From the data, it is clear that the instant triazine UV absorbers are considerably more soluble in UV curable coating formulations compared to other, triazine UV absorbers. The use of many UV absorbers in coatings has been limited in the past by the limited solubility and compatibility of some UV absorber compounds.

[2] = Multilayered coated panels, accelerated weathering: color change (ΔE); details: after 6000 hours Xenon Arc accelerated weathering (SAE J2527); UV absorber 2.5 wt % in 2-part polyurethane clear top coat on white base coat
Procedure: (§1) Example 10. Stabilized 2-Part Solvent-borne Polyurethane Glossy Clear Top Coat. A glossy stabilized clear top coat was prepared of the formulation below. The UV absorbers were added to the formulation at 2.5 wt % relative to total resin solids.
(§2) Example 11. Stabilized 2-Part Solvent-borne Polyurethane Glossy Clear Top Coat. A glossy stabilized clear top coat was prepared of the formulation below. The UV absorber was added at 2.5 wt % relative to total resin solids, and the hindered amine light stabilizer (HALS) was added at 1.5 wt % relative to total resin solids. The HALS was a mixture of bis (1,2,2,6,6-pentamethyl-4-piperidyl) sebacate and methyl-1,2,2,6,6-pentamethyl-4-piperidyl sebacate (“HALS 1”); bis(1-octyloxy-2,2,6,6-tetramethylpiperidin-4-yl) sebacate (“HALS 2”); or 2,4-bis[(1-cyclohexyloxy-2,2,6,6-tetramethylpiperidin-4-yl)butylamino]-6-(2-hydroxyethylamino-s-triazine (“HALS 3”).
Example 12. Multilayered Coated Panel Preparation. Aluminum test panels from ACT Test Panels LLC were purchased having a white base coat (coil coat) and no clear top coat. The panels were cut to a size of about 3 inches by 6 inches. The stabilized top coats of Examples 10 and 11 were applied to the painted test panels using draw down bars to obtain clear coat thicknesses of either 2 mils or 3 mils, wherein 1 mil is equal to 0.0254 mm or 25.4 microns. The panels were allowed to air dry for 2 days followed by oven curing at 60° C. for 60 minutes. Initial CIE Lab color values, 20 degree gloss, and 60 degree gloss were measured.
Example 14. Multilayered Coated Panels, Accelerated Weathering. […]
Initial color measurements were taken using the above parameters. The L, a, and b values were calculated using the CIE system from the reflectance values. ΔE was calculated from the L, a, and b values. Subsequent measurements were taken at specified intervals. ΔL, a, and b values were the difference between the initial values and the values at each interval. ΔE was calculated as follows: [(ΔL)^2+(Δa)^2+(Δb)^2][…]=ΔE. […]

[3] = UV absorber solubility in UV curable coating composition (Example 8); details: approximate maximum concentration with no sign of crystallization; coating similar to Pourreau, RadTech Report 2004, Table 5
Procedure: Example 8. UV Absorber Solubility in UV Curable Coating Compositions. To measure this solubility, a number of structurally different UV absorbers were added to a typical UV curable coating composition similar to that as described by D. B. Pourreau “UV-Curable Acrylic Urethane Clearcoats for Automotive Applications,” RadTech Report, November/December, 2004, Table 5, p. 66. The test UV absorber was added to the UV curable coating composition at various concentrations. The resulting solution was placed into individual containers and sealed. Solubility was then evaluated based upon observed crystallization in the solvent. Observations started after several hours and then continued over a period of several weeks.
The solubility values given in Table 1, below, are approximate maximum concentrations where no sign of subsequent crystallization was evident. Solubilities are reported in weight percent of total UV absorber added to UV curable coating formulation. From the data in Table 1, it is clear that the inventive triazine UV absorbers are considerably more soluble in UV curable coating formulations than other triazine UV absorbers of the prior art. The use of many UV absorbers in coatings has been limited by solubility and compatibility of some UV absorber compounds. […]

[4] = Multilayered coated panels, accelerated weathering: 20 degree gloss retention; details: after 3536 hours Xenon Arc accelerated weathering (SAE J2527); UV absorber 2.5 wt % in 2-part polyurethane clear top coat on white base coat
Procedure: as §1, §2
Example 12. Multilayered Coated Panel Preparation. Aluminum test panels from ACT Test Panels LLC were purchased having a white base coat (coil coat) and no clear top coat. The panels were cut to a size of about 3 inches by 6 inches. […] Initial CIE Lab color values, 20 degree gloss, and 60 degree gloss were measured. […]

[5] = Percent transmission of clear coats on fused quartz plates (UV-vis); details: clear coat, 2.0 mils dry film on fused quartz; 2.5 weight percent UVA actives where present; with HALS 2
Procedure: Example 29. Percent Transmission Data of the Inventive Clear Coats—Clear coats were prepared of Instant Example 23 and were applied to fused quartz plates at a dry film thickness of 2.0 mils. The absorbance at various wavelengths was measured using a UV-vis spectrophotometer and the absorbance readings were converted to percent transmission (% T) at various wavelengths. In formulations where the UV absorber (UVA) was present, the concentration was 2.5 weight percent UVA actives relative to total resin solids

Molecule	Solubility in UV Curable Coating [1]	Delta E [2]	Solubility in UV Curable Coating [3]	20 degree gloss retention [4]	% T at 325 nm [5]	% T at 350 nm [5]	% T at 375 nm [5]
CCCCC(CC)COc1ccc(-c2nc(-c3ccc(-c4ccccc4)cc3)nc(-c3ccc(-c4ccccc4)cc3)n2)c(O)c1 (centres unmarked) [Example 5, 2-[4,6-Bis(4-phenylphenyl)-1,3,5-triazin-2-yl]-5-(2-ethylhexoxy)phenol, reference compound]	~2.4 wt %	2.79	–	–	–	–	–
CC(C)CCCC(C)OC(=O)C(C)Oc1ccc(-c2nc(-c3ccc(-c4ccccc4)cc3)nc(-c3ccc(-c4ccccc4)cc3)n2)c(O)c1 (centres unmarked) [Example 4, 2-Isooctyl 2-[4-[4,6-bis(4-phenylphenyl)-1,3,5-triazin-2-yl]-3-hydroxy-phenoxy]propanoate]	–	3.78	~0 wt %	78.8%	–	–	–
CC(C)(C)CCCCCC(=O)OCC(COc1ccc(-c2nc(-c3ccc(-c4ccccc4)cc3)nc(-c3ccc(-c4ccccc4)cc3)n2)c(O)c1)OC(=O)NCCCCCNC(=O)N(CCCCCCN=C=O)C(=O)NCCCCCCN=C=O (centres unmarked) [Example 16, [3-[4-[4,6-bis(4-phenylphenyl)-1,3,5-triazin-2-yl]-3-hydroxy-phenoxy]-2-[5-[[6-isocyanatohexyl(6-isocyanatohexylcarbamoyl)carbamoyl]amino]pentyl-carbamoyloxy]propyl] neodecanoate]	–	–	–	–	0.03%	0.11%	33.86%
[3-[4-[4,6-bis(4-phenylphenyl)-1,3,5-triazin-2-yl]-3-hydroxy-phenoxy]-2-hydroxy-propyl] neo-decanoate (“UVA-3”) and [2-[4-[4,6-bis(4-phenylphenyl)-1,3,5-triazin-2-yl]-3-hydroxy-phenoxy]-3-hydroxy-propyl] neo-decanoate (“UVA-4”) [Example 2]	~26 wt %	1.89	~6.4 wt %	–	–	–	–
CC(C)(C)CCCCCC(=O)OCC(COc1ccc(-c2nc(-c3ccc(-c4ccccc4)cc3)nc(-c3ccc(-c4ccccc4)cc3)n2)c(O)c1)OC(=O)NCCCCCCNC(=O)N(CCCCCCN=C=O)C(=O)NCCCCCCNC(=O)OC(COC(=O)CCCCCC(C)(C)C)COc1ccc(-c2nc(-c3ccc(-c4ccccc4)cc3)nc(-c3ccc(-c4ccccc4)cc3)n2)c(O)c1 (centres unmarked) [Example 17, [3-[4-[4,6-bis(4-phenylphenyl)-1,3,5-triazin-2-yl]-3-hydroxy-phenoxy]-2-[6-[[6-[[1-[[4-[4,6-bis(4-phenylphenyl)-1,3,5-triazin-2-yl]-3-hydroxy-phenoxy]methyl]-2-(neodecanoyl)oxy-ethoxy]carbonylamino]hexylcarbamoyl-(6-isocyanatohexyl)-carbamoyl]amino]hexylcarbamoyloxy]propyl] neodecanoate]	–	–	–	–	0.02%	0.09%	25.29%
CCCCCC(CC)OC(=O)N(CCCCCCN=C=O)C(=O)NCCCCCCNC(=O)OC(COC(=O)CCCCCC(C)(C)C)COc1ccc(-c2nc(-c3ccc(-c4ccccc4)cc3)nc(-c3ccc(-c4ccccc4)cc3)n2)c(O)c1 (centres unmarked) [Example 19, [3-[4-[4,6-bis(4-phenylphenyl)-1,3,5-triazin-2-yl]-3-hydroxy-phenoxy]-2-[6-[[1-ethylhexoxycarbonyl(6-isocyanatohexyl)carbamoyl]amino]hexylcarbamoyloxy]propyl] neodecanoate]	–	–	–	–	0.02%	0.10%	27.18%
CCCCCCCCON1C(C)(C)CC(OC(=O)CCCCCCCCC(=O)OC2CC(C)(C)N(OCCCCCCCC)C(C)(C)C2)CC1(C)C [HALS 2, bis(1-octyloxy-2,2,6,6-tetramethylpiperidin-4-yl) sebacate, reference compound]	–	–	–	–	84.39%	92.31%	93.38%
CC(C)(C)CCCCCC(=O)OCC(COc1ccc(-c2nc(-c3ccc(-c4ccccc4)cc3)nc(-c3ccc(-c4ccccc4)cc3)n2)c(O)c1)OC(=O)NCCCCCCn1c(=O)n(CCCCCCN=C=O)c(=O)n(CCCCCCN=C=O)c1=O (centres unmarked) [Example 18, [2-[6-[3,5-bis(6-isocyanatohexyl)-2,4,6-trioxo-1,3,5-triazinan-1-yl]hexylcarbamoyloxy]-3-[4-[4,6-bis(4-phenylphenyl)-1,3,5-triazin-2-yl]-3-hydroxy-phenoxy]propyl] neodecanoate]	–	–	–	–	0.02%	0.13%	31.98%
2-[4,6-bis(2,4-dimethylphenyl)-1,3,5-triazin-2-yl]-5-[2-hydroxy-3-(2-methylbutoxy)propoxy]phenol and regioisomer [Example 3, reference compound]	–	–	–	–	0.04%	0.10%	36.79%
